The record followed here is PubChem BioAssay (NCI).

Test systems include A498 renal; OVCAR-5 ovarian; SW-620 colon; DMS 273 small cell lung; LXFL 529 NSCLC; HCT-15 colon; OVCAR-8 ovarian; PC-3 prostate; HS 578T breast; NCI/ADR-RES ovarian.
What all share (assay): NCI anticancer screen, dose series, 48 h

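Grown in 96-well plates, cells were treated for 48 hours with each compound at five concentrations. Insufficient inhibition: endpoint recorded as highest concentration tested. GI50 = concentration required for 50% inhibition of growth. TGI denotes the concentration required for complete inhibition of growth.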

`O=C(CC/C(CC(=O)c1ccc(Br)cc1)=N\O)Nc1ccc(Cl)c(Cl)c1`: the TGI in the assay on A498 renal, in the assay with OVCAR-5 ovarian, in the assay on SW-620 colon, in the assay on DMS 273 small cell lung, in the assay on LXFL 529 NSCLC and with HCT-15 colon was more than 100 µM each time. Besides, the TGI in the assay on OVCAR-8 ovarian is more than 100 µM.

`Cn1c(=O)c2/c(n(C)c1=O)=N\C=c1\c(=O)n(C)c(=O)n(C)\c1=N\C=2`: the TGI in the assay on A498 renal, in the assay on OVCAR-5 ovarian, with SW-620 colon, with LXFL 529 NSCLC, in the assay on HCT-15 colon and with OVCAR-8 ovarian was more than 100 µM throughout.

Regarding `O=C1CSc2cc([N+](=O)[O-])ccc2N1`, the TGI in the assay with A498 renal, in the assay with OVCAR-5 ovarian, in the assay on SW-620 colon, in the assay on DMS 273 small cell lung, with LXFL 529 NSCLC and with HCT-15 colon was more than 100 µM each time. Also, the TGI in the assay on OVCAR-8 ovarian is more than 100 µM.

On to `Cn1cccc1/C=C/c1cc(Br)c(/C=C/c2cccn2C)cc1Br`, for which the TGI in the assay with A498 renal is 45.1 µM; in the assay on OVCAR-5 ovarian, more than 100 µM; in the assay on SW-620 colon it was 56.3 µM; in the assay on DMS 273 small cell lung, 38.3 µM; in the assay with LXFL 529 NSCLC it was 25 µM; in the assay with HCT-15 colon, 24.6 µM.

In the case of `O=C(CCC(=O)C1CCC/C1=N/O)Nc1ccc(Cl)cc1` (stereo unspecified), the TGI with A498 renal, in the assay with OVCAR-5 ovarian, in the assay on SW-620 colon, in the assay on DMS 273 small cell lung, with LXFL 529 NSCLC and in the assay with HCT-15 colon was more than 100 µM throughout. In the assay on OVCAR-8 ovarian, the TGI is more than 100 µM.

With `Brc1cc2c(cc1Br)CN(c1ccccc1)C2`, the TGI with A498 renal, in the assay on OVCAR-5 ovarian, with SW-620 colon, in the assay on DMS 273 small cell lung, in the assay with LXFL 529 NSCLC and in the assay on HCT-15 colon was more than 100 µM each time. In the assay with OVCAR-8 ovarian, this compound yielded a TGI of more than 100 µM.

Turning to `CN(C)C(=O)Oc1c(-c2ccccc2)c(=O)n2c3ccccc3n3c(=O)n(C)c(=O)c1c23`, the TGI in the assay with A498 renal, in the assay with OVCAR-5 ovarian, with SW-620 colon, in the assay on DMS 273 small cell lung, in the assay with LXFL 529 NSCLC and in the assay with HCT-15 colon was more than 100 µM in each case. In the assay on OVCAR-8 ovarian, the TGI is more than 100 µM.

Take `O=C1/C(=C/c2ccc(Br)cc2)CCC/C1=C\c1ccc(Br)cc1`: the TGI in the assay with A498 renal was found to be 16.1 µM; in the assay on SW-620 colon it was 89 µM; in the assay with DMS 273 small cell lung, 15.7 µM; with LXFL 529 NSCLC, 14.7 µM; with HCT-15 colon, 31.1 µM; in the assay on OVCAR-8 ovarian it was 22 µM.

In the case of `CC(=O)[CH-]C(C)=O.CC(=O)[CH-]C(C)=O.CC[O-].CC[O-].[Ti+4]`, the GI50 with OVCAR-5 ovarian, with SW-620 colon, with LXFL 529 NSCLC, in the assay on HCT-15 colon and in the assay on OVCAR-8 ovarian was more than 100 µM each time. The TGI in the assay with OVCAR-5 ovarian, in the assay with SW-620 colon, with LXFL 529 NSCLC, with HCT-15 colon and in the assay with OVCAR-8 ovarian was more than 100 µM each time.

For the compound `Cc1cccc2c(O)cc(=O)oc12`, the TGI with A498 renal, in the assay on OVCAR-5 ovarian, in the assay on SW-620 colon, with LXFL 529 NSCLC and in the assay with OVCAR-8 ovarian was more than 100 µM in each case.

`CC(=O)N/C(=C\c1ccc(Cc2nc3c([nH]2)C(=O)c2ccccc2C3=O)cc1)c1nc2c([nH]1)C(=O)c1ccccc1C2=O`: the TGI in the assay on A498 renal, with OVCAR-5 ovarian, in the assay with SW-620 colon, in the assay with LXFL 529 NSCLC and with OVCAR-8 ovarian was more than 100 µM each time.

For the compound `CC[C@H](C)C(=O)O[C@H]1C[C@H](O)C=C2C=C[C@H](C)[C@H](CC[C@@H](O)C[C@@H](O)CC(=O)O)[C@H]21`, the GI50 in the assay on A498 renal was 11.6 µM; in the assay on PC-3 prostate, more than 100 µM; with OVCAR-5 ovarian it was more than 100 µM; in the assay with HS 578T breast it was more than 100 µM; in the assay on SW-620 colon, more than 100 µM; with NCI/ADR-RES ovarian, more than 100 µM. Moreover, the GI50 in the assay on HCT-15 colon and with OVCAR-8 ovarian was more than 100 µM throughout. The TGI in the assay with A498 renal, in the assay with PC-3 prostate, in the assay on OVCAR-5 ovarian, in the assay with HS 578T breast, with SW-620 colon and in the assay on NCI/ADR-RES ovarian was more than 100 µM throughout. In addition, the TGI in the assay on HCT-15 colon and with OVCAR-8 ovarian was more than 100 µM in each case.

Consider `N#CCC(=O)N1CCCCCCC1`, for which the TGI with A498 renal was more than 100 µM; in the assay with OVCAR-5 ovarian, more than 100 µM; with SW-620 colon, 21.3 µM; in the assay on DMS 273 small cell lung, more than 100 µM; with LXFL 529 NSCLC it was more than 100 µM; with HCT-15 colon, 30.5 µM.

On to `Cc1ccc(C(=O)CC2=Nc3nnc(CCCCCCCc4nnc5n4C(=O)C(CC(=O)c4ccc(C)cc4)=N5)n3C2=O)cc1`, for which the TGI in the assay on OVCAR-5 ovarian, in the assay on SW-620 colon, in the assay with LXFL 529 NSCLC, in the assay on HCT-15 colon and in the assay on OVCAR-8 ovarian was more than 100 µM each time.

For the compound `CC(=C/c1ccccc1)/C=C1/NC(=S)N(/C=C2\C(=O)Oc3ccccc3C2=O)C1=O`, the TGI in the assay with A498 renal, in the assay with PC-3 prostate, in the assay with OVCAR-5 ovarian, in the assay on HS 578T breast, in the assay on SW-620 colon and with NCI/ADR-RES ovarian was more than 100 µM each time. In addition, the TGI in the assay on HCT-15 colon and in the assay on OVCAR-8 ovarian was more than 100 µM in each case. Also, the GI50 with HS 578T breast and in the assay with SW-620 colon was more than 100 µM in each case.

For the compound `Cn1cc(C2=C(N3CCOCC3)C(=O)NC2=O)c2ccccc21`, the GI50 in the assay on A498 renal, in the assay with PC-3 prostate, in the assay on OVCAR-5 ovarian, with HS 578T breast, in the assay with SW-620 colon and with NCI/ADR-RES ovarian was more than 25 µM throughout. Moreover, the GI50 with HCT-15 colon and with OVCAR-8 ovarian was more than 25 µM each time. Besides, the TGI in the assay with A498 renal, in the assay on PC-3 prostate, in the assay with OVCAR-5 ovarian, in the assay on HS 578T breast, in the assay with SW-620 colon and with NCI/ADR-RES ovarian was more than 25 µM throughout. Also, the TGI with HCT-15 colon and with OVCAR-8 ovarian was more than 25 µM each time.
